Among the data in patent US20260022142A1, “MACROCYCLIC IMMUNOMODULATORS” (Bristol-Myers Squibb Company, priority 2022, published 2026) are IC50 values, retold here.

In general, IC50 refers to the concentration needed to halve the response being measured.

Numbered stars: 1 amine (or outer) side, 2 acyl side, 3 side chain; on linkers, the order of the positions; unused ones are H or OH. Bridge positions count the residues as written; N and C are the ends. Square brackets hold non-standard residues; d marks the D form. Peptide text beside a SMILES is read from it. * marks the point of attachment. ξ: configuration not given here. Phe(4-COOH) = N[C@@H](Cc1ccc(C(=O)O)cc1)C(=O)O; Bip = N[C@@H](Cc1ccc(-c2ccccc2)cc1)C(=O)O; NH(CH2)14COOH = O=C(O)CCCCCCCCCCCCCCN*; βAsp = O=C(O)[C@H](CC(=O)[*:2])N[*:1]; NH(CH2)12COOH = O=C(O)CCCCCCCCCCCCN*; hArg = N=C(N)NCCCC[C@H](N)C(=O)O; 4Pal = N[C@@H](Cc1ccncc1)C(=O)O; Cha = N[C@@H](CC1CCCCC1)C(=O)O; Ile(3ξ) = CCC(C)[C@H](N)C(=O)O; Thr(3ξ) = CC(O)[C@H](N)C(=O)O; 12Ado = NCCCCCCCCCCCC(=O)O; Carboxymethyl = O=C(O)C*; Orn = NCCC[C@H](N)C(=O)O; Aun = NCCCCCCCCCCC(=O)O; Dab = NCC[C@H](N)C(=O)O; AEEA = NCCOCCOCC(=O)O

The assay deals with T1, PD-1/PD-L1 interaction (PE-labeled human PD-L1-Ig binding to Jurkat cell line over-expressing human PD-1) (Homo sapiens, UniProt Q15116).
T1 construct: expressed in transfected cells; host or cells: Jurkat
T1 sequence (Q15116 25-288): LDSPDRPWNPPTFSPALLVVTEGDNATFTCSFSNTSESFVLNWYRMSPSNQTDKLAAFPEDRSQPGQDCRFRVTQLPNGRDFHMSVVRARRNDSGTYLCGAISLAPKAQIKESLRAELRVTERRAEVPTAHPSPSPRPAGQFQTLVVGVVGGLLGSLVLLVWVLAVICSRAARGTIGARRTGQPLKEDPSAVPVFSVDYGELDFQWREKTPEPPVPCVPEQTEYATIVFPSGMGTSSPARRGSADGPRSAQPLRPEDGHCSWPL
Put plainly: Jurkat-PD-1 Cell Binding High-Content Screening Assay (CBA). The conditions noted are these: Jurkat cell line over-expressing human PD-1; PE-labeled PD-L1-Ig 20 nM final; read-out: Jurkat hPD1-PDL1 IC50. The assay is classed as cell-based. In outline: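 Binding of fluorescent PD-L1-Ig (20 nM final) to Jurkat-PD-1 cells was measured by automated imaging after 1 h, following a 2 h compound pre-treatment at 37° C.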
Regarding `CC(C)C[C@H]1NC(=O)[C@H](CCCN)NC(=O)[C@H](C(C)C)NC(=O)[C@H](Cc2ccc(-c3ccccc3)cc2)NC(=O)[C@H](C(C)C)NC(=O)[C@H](Cc2c[nH]c3ccccc23)NC(=O)[C@H](CC(=O)O)NC(=O)[C@H](Cc2ccc(OCC(=O)O)cc2)NC(=O)[C@H](C(C)O)NC(=O)CSC[C@@H](C(=O)N[C@@H](CC(N)=O)C(=O)NCCOCCOCC(=O)N[C@@H](CCCN)C(=O)NCCCCCCCCCCC(=O)O)NC(=O)[C@H](C(C)O)NC(=O)[C@H](C(C)C)NC(=O)[C@H](CC2CCCCC2)NC(=O)[C@H](CCN)NC1=O` (stereo partly drawn) [Compound 3031] ({CH2CO}-[Thr(3ξ)]Y(Carboxymethyl)DWV[Bip]V[Orn][dL][Dab][Cha]V[Thr(3ξ)]CN[AEEA][Orn][Aun]-OH; thioether N-14), the IC50 turned out to be 3.4 nM. Next, `CC(C)C[C@H]1NC(=O)[C@H](CCCN)NC(=O)[C@H](C(C)C)NC(=O)[C@H](Cc2ccc(-c3ccccc3)cc2)NC(=O)[C@H](C(C)C)NC(=O)[C@H](Cc2c[nH]c3ccccc23)NC(=O)[C@H](CC(=O)O)NC(=O)[C@H](Cc2ccc(OCC(=O)O)cc2)NC(=O)[C@H](CCCCNC(=N)N)NC(=O)CSC[C@@H](C(=O)N[C@@H](C)C(=O)NCCOCCOCC(=O)N[C@@H](CCCN)C(=O)NCCCCCCCCCCC(=O)O)NC(=O)[C@H](C(C)O)NC(=O)[C@H](C(C)C)NC(=O)[C@H](CC2CCCCC2)NC(=O)[C@H](Cc2c[nH]cn2)NC1=O` (stereo partly drawn) [Compound 3032] ({CH2CO}-[hArg]Y(Carboxymethyl)DWV[Bip]V[Orn][dL]H[Cha]V[Thr(3ξ)]CA[AEEA][Orn][Aun]-OH; thioether N-14): 26.5 nM; `CC(C)C[C@H]1NC(=O)[C@H](CCCN)NC(=O)[C@H](C(C)C)NC(=O)[C@H](Cc2ccc(-c3ccccc3)cc2)NC(=O)[C@H](C(C)C)NC(=O)[C@H](Cc2c[nH]c3ccccc23)NC(=O)[C@H](CC(=O)O)NC(=O)[C@H](Cc2ccc(OCC(=O)O)cc2)NC(=O)[C@H](C(C)O)NC(=O)CSC[C@@H](C(=O)N[C@@H](C)C(=O)NCCOCCOCC(=O)N[C@@H](CCCN)C(=O)NCCCCCCCCCCC(=O)O)NC(=O)[C@H](C(C)O)NC(=O)[C@H](C(C)C)NC(=O)[C@H](CC2CCCCC2)NC(=O)[C@H](Cc2c[nH]cn2)NC1=O` (stereo partly drawn) [Compound 3033] ({CH2CO}-[Thr(3ξ)]Y(Carboxymethyl)DWV[Bip]V[Orn][dL]H[Cha]V[Thr(3ξ)]CA[AEEA][Orn][Aun]-OH; thioether N-14): 11.3 nM. On to `CC(C)C[C@H]1NC(=O)[C@H](CCCN)NC(=O)[C@H](CCC(=O)O)NC(=O)[C@H](Cc2ccc(-c3ccccc3)cc2)NC(=O)[C@H](C(C)C)NC(=O)[C@H](Cc2c[nH]c3ccccc23)NC(=O)[C@H](CC(=O)O)NC(=O)[C@H](Cc2ccncc2)NC(=O)[C@H](CCCCNC(=N)N)NC(=O)CSC[C@@H](C(=O)N[C@@H](C)C(=O)NCCOCCOCC(=O)N[C@@H](CCCCN)C(=O)NCCCCCCCCCCCCCCC(=O)O)NC(=O)[C@H](CO)NC(=O)[C@H](C(C)C)NC(=O)[C@H](CC2CCCCC2)NC(=O)[C@H](CCN)NC1=O` [Compound 3034] ({CH2CO}-[hArg][4Pal]DWV[Bip]E[Orn][dL][Dab][Cha]VSCA[AEEA]K-{NH(CH2)14COOH}; thioether N-14), for which the IC50 came to 109 nM.

For `CC(C)C[C@H]1NC(=O)[C@H](CCCN)NC(=O)[C@H](C(C)C)NC(=O)[C@H](Cc2ccc(-c3ccccc3)cc2)NC(=O)[C@H](C(C)C)NC(=O)[C@H](Cc2c[nH]c3ccccc23)NC(=O)[C@H](CC(=O)O)NC(=O)[C@H](Cc2ccc(OCC(=O)O)cc2)NC(=O)[C@H](CCCCNC(=N)N)NC(=O)CSC[C@@H](C(=O)NCC(=O)NCCOCCOCC(=O)N[C@@H](CCCN)C(=O)NCCCCCCCCCCC(=O)O)NC(=O)[C@H](CO)NC(=O)[C@H](C(C)C)NC(=O)[C@H](CC2CCCCC2)NC(=O)[C@H](CCN)NC1=O` [Compound 3035] ({CH2CO}-[hArg]Y(Carboxymethyl)DWV[Bip]V[Orn][dL][Dab][Cha]VSCG[AEEA][Orn][Aun]-OH; thioether N-14), the IC50 worked out at 10.7 nM. For the compound `CC(C)C[C@H]1NC(=O)[C@H](CCCN)NC(=O)[C@H](C(C)C)NC(=O)[C@H](Cc2ccc(-c3ccccc3)cc2)NC(=O)[C@H](C(C)C)NC(=O)[C@H](Cc2c[nH]c3ccccc23)NC(=O)[C@H](CC(=O)O)NC(=O)[C@H](Cc2ccc(OCC(=O)O)cc2)NC(=O)[C@H](CCCCNC(=N)N)NC(=O)CSC[C@@H](C(=O)NCC(=O)NCCOCCOCC(=O)N[C@@H](CCCN)C(=O)NCCCCCCCCCCCC(=O)O)NC(=O)[C@H](CO)NC(=O)[C@H](C(C)C)NC(=O)[C@H](CC2CCCCC2)NC(=O)[C@H](CCN)NC1=O` [Compound 3036] ({CH2CO}-[hArg]Y(Carboxymethyl)DWV[Bip]V[Orn][dL][Dab][Cha]VSCG[AEEA][Orn][12Ado]-OH; thioether N-14), the IC50 is 4.9 nM.

Take `CC(C)C[C@H]1NC(=O)[C@H](CCCN)NC(=O)[C@H](C(C)C)NC(=O)[C@H](Cc2ccc(-c3ccccc3)cc2)NC(=O)[C@H](C(C)C)NC(=O)[C@H](Cc2c[nH]c3ccccc23)NC(=O)[C@H](CC(=O)O)NC(=O)[C@H](Cc2ccc(OCC(=O)O)cc2)NC(=O)[C@H](CCCCNC(=N)N)NC(=O)CSC[C@@H](C(=O)NCC(=O)NCCOCCOCC(=O)N[C@@H](CCCN)C(=O)NCCCCCCCCCCCCC(=O)O)NC(=O)[C@H](CO)NC(=O)[C@H](C(C)C)NC(=O)[C@H](CC2CCCCC2)NC(=O)[C@H](CCN)NC1=O` [Compound 3037] ({CH2CO}-[hArg]Y(Carboxymethyl)DWV[Bip]V[Orn][dL][Dab][Cha]VSCG[AEEA][Orn]-{NH(CH2)12COOH}; thioether N-14): the IC50 was 16.5 nM. In the case of `CC(C)C[C@H]1NC(=O)[C@H](CCCN)NC(=O)[C@H](C(C)C)NC(=O)[C@H](Cc2ccc(-c3ccccc3)cc2)NC(=O)[C@H](C(C)C)NC(=O)[C@H](Cc2c[nH]c3ccccc23)NC(=O)[C@H](CC(=O)O)NC(=O)[C@H](Cc2ccc(C(=O)O)cc2)NC(=O)[C@H](C(C)O)NC(=O)CSC[C@@H](C(=O)N[C@@H](CC(N)=O)C(=O)NCCOCCOCC(=O)N[C@@H](CCCN)C(=O)NCCCCCCCCCCCC(=O)O)NC(=O)[C@H](CO)NC(=O)[C@H](C(C)C)NC(=O)[C@H](CC2CCCCC2)NC(=O)[C@H](CCN)NC1=O` (stereo partly drawn) [Compound 3038] ({CH2CO}-[Thr(3ξ)][Phe(4-COOH)]DWV[Bip]V[Orn][dL][Dab][Cha]VSCN[AEEA][Orn][12Ado]-OH; thioether N-14), the IC50 amounted to 11.3 nM. Regarding `CCC(C)[C@@H]1NC(=O)[C@H](Cc2ccc(-c3ccccc3)cc2)NC(=O)[C@H](C(C)C)NC(=O)[C@H](Cc2c[nH]c3ccccc23)NC(=O)[C@H](CC(=O)O)NC(=O)[C@H](Cc2ccc(C(=O)O)cc2)NC(=O)[C@H](Cc2ccncc2)NC(=O)CSC[C@@H](C(=O)N[C@@H](CC(N)=O)C(=O)NCCOCCOCC(=O)N[C@@H](CCCN)C(=O)NCCCCCCCCCCC(=O)O)NC(=O)[C@H](CO)NC(=O)[C@H](C(C)C)NC(=O)[C@H](CC2CCCCC2)NC(=O)[C@H](CCN)NC(=O)[C@@H](CC(C)C)NC(=O)[C@H](CCCN)NC1=O` (stereo partly drawn) [Compound 3039] ({CH2CO}-[4Pal][Phe(4-COOH)]DWV[Bip][Ile(3ξ)][Orn][dL][Dab][Cha]VSCN[AEEA][Orn][Aun]-OH; thioether N-14), the IC50 stood at 10.5 nM. In the case of `CCC(C)[C@@H]1NC(=O)[C@H](Cc2ccc(-c3ccccc3)cc2)NC(=O)[C@H](C(C)C)NC(=O)[C@H](Cc2c[nH]c3ccccc23)NC(=O)[C@H](CC(=O)O)NC(=O)[C@H](Cc2ccncc2)NC(=O)[C@H](C(C)O)NC(=O)CSC[C@@H](C(=O)N[C@@H](CC(N)=O)C(=O)NCCOCCOCC(=O)N[C@@H](CCCN)C(=O)NCCCCCCCCCCCCC(=O)O)NC(=O)[C@H](CO)NC(=O)[C@H](C(C)C)NC(=O)[C@H](CC2CCCCC2)NC(=O)[C@H](CCN)NC(=O)[C@@H](CC(C)C)NC(=O)[C@H](CCCN)NC1=O` (stereo partly drawn) [Compound 3040] ({CH2CO}-[Thr(3ξ)][4Pal]DWV[Bip][Ile(3ξ)][Orn][dL][Dab][Cha]VSCN[AEEA][Orn]-{NH(CH2)12COOH}; thioether N-14), the IC50 came out at 15 nM.

On to `CC(C)C[C@H]1NC(=O)[C@H](CCCN)NC(=O)[C@H](C(C)C)NC(=O)[C@H](Cc2ccc(-c3ccccc3)cc2)NC(=O)[C@H](C(C)C)NC(=O)[C@H](Cc2c[nH]c3ccccc23)NC(=O)[C@H](CC(=O)O)NC(=O)[C@H](Cc2ccc(OCC(=O)O)cc2)NC(=O)[C@H](C(C)O)NC(=O)CSC[C@@H](C(=O)NCCOCCOCC(=O)N[C@@H](CC(=O)NCCCCCCCCCCCC(=O)O)C(=O)O)NC(=O)[C@H](CO)NC(=O)[C@H](C(C)C)NC(=O)[C@H](CC2CCCCC2)NC(=O)[C@H](CCN)NC1=O` (stereo partly drawn) [Compound 3041] ({CH2CO}-[Thr(3ξ)]Y(Carboxymethyl)DWV[Bip]V[Orn][dL][Dab][Cha]VSC[AEEA][βAsp][12Ado]-OH; thioether N-14), for which the IC50 is 12.7 nM.

As to `CC(C)C[C@H]1NC(=O)[C@H](CCCN)NC(=O)[C@H](C(C)C)NC(=O)[C@H](Cc2ccc(-c3ccccc3)cc2)NC(=O)[C@H](C(C)C)NC(=O)[C@H](Cc2c[nH]c3ccccc23)NC(=O)[C@H](CC(=O)O)NC(=O)[C@H](Cc2ccc(C(=O)O)cc2)NC(=O)[C@H](Cc2ccc(OCC(=O)O)cc2)NC(=O)CSC[C@@H](C(=O)NCCOCCOCC(=O)N[C@@H](CC(=O)NCCCCCCCCCCCC(=O)O)C(=O)O)NC(=O)[C@H](C(C)O)NC(=O)[C@H](C(C)C)NC(=O)[C@H](CC2CCCCC2)NC(=O)[C@H](CCN)NC1=O` (stereo partly drawn) [Compound 3042] ({CH2CO}-Y(Carboxymethyl)[Phe(4-COOH)]DWV[Bip]V[Orn][dL][Dab][Cha]V[Thr(3ξ)]C[AEEA][βAsp][12Ado]-OH; thioether N-14), the IC50 amounted to 11.5 nM.

As for `CC(C)C[C@H]1NC(=O)[C@H](CCCN)NC(=O)[C@H](C(C)C)NC(=O)[C@H](Cc2ccc(-c3ccccc3)cc2)NC(=O)[C@H](C(C)C)NC(=O)[C@H](Cc2c[nH]c3ccccc23)NC(=O)[C@H](CC(=O)O)NC(=O)[C@H](Cc2ccc(OCC(=O)O)cc2)NC(=O)[C@H](CCCCNC(=N)N)NC(=O)CSC[C@@H](C(=O)NCC(=O)NCCOCCOCC(=O)NCCCCCCCCCCCCC(=O)O)NC(=O)[C@H](CO)NC(=O)[C@H](C(C)C)NC(=O)[C@H](CC2CCCCC2)NC(=O)[C@H](CCN)NC1=O` [Compound 3043] ({CH2CO}-[hArg]Y(Carboxymethyl)DWV[Bip]V[Orn][dL][Dab][Cha]VSCG[AEEA]-{NH(CH2)12COOH}; thioether N-14), the IC50 was 15.4 nM.
